Legend:
WRN C727 = molecular target: T1, WRN C727 (Homo sapiens, UniProt Q14191); test: Target engagement, in vitro (lysate), OCI-AML2; assay type: binding; details: read-out: OCI-AML2 WRN C727 TE50 in vitro (lysate)
T1 construct: endogenous in cells; host or cells: OCI-AML2
Outline: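 OCI-AML2 intact cells or lysates dosed with compound, then a cysteine-reactive probe; after trypsin digestion, probe-labelled peptides were streptavidin-enriched and quantified by nano-LC parallel reaction monitoring MS. Engagement (%) relative to DMSO controls.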

SW480 cells = test: Cell growth assay (CellTiter-Glo 2.0), SW480 MSS cell line; details: Homo sapiens, SW480, 120 h, read-out: Cell Growth Inhibition GI50 SW480
HCT 116 cells = test: Cell growth assay (CellTiter-Glo 2.0), HCT 116 MSI-H cell line; details: Homo sapiens, HCT-116, 120 h, read-out: Cell Growth Inhibition GI50 HCT-116
[1] = molecular target: hWRN(519-1227)_C-H3CV-GFP-10His (Homo sapiens, UniProt Q14191); test: Helicase Assay for WRN Inhibition (ATP-dependent, fluorescence based); details: WRN Helicase IC50, 30 min preincubation with ATP, 30 min reaction
hWRN(519-1227)_C-H3CV-GFP-10His, sequence (Q14191 519-1227): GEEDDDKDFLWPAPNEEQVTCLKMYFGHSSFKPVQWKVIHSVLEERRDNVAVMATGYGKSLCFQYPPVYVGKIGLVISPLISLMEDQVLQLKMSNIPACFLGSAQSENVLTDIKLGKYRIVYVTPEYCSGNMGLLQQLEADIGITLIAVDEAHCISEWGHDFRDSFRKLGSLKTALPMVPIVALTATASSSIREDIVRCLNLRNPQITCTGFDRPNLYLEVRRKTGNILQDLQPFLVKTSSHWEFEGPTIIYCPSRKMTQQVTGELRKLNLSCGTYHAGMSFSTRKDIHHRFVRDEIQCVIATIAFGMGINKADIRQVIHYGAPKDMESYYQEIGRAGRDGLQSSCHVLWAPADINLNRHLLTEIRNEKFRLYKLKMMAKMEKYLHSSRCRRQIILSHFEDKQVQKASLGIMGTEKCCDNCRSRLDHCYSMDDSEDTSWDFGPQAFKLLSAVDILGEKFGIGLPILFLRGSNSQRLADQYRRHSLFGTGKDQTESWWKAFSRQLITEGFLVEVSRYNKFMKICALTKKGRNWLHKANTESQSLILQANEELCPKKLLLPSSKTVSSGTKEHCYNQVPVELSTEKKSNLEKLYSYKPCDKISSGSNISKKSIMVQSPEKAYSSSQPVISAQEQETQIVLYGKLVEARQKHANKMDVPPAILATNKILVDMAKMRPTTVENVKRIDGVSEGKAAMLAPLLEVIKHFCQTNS

T1 sequence (Q14191 whole entry): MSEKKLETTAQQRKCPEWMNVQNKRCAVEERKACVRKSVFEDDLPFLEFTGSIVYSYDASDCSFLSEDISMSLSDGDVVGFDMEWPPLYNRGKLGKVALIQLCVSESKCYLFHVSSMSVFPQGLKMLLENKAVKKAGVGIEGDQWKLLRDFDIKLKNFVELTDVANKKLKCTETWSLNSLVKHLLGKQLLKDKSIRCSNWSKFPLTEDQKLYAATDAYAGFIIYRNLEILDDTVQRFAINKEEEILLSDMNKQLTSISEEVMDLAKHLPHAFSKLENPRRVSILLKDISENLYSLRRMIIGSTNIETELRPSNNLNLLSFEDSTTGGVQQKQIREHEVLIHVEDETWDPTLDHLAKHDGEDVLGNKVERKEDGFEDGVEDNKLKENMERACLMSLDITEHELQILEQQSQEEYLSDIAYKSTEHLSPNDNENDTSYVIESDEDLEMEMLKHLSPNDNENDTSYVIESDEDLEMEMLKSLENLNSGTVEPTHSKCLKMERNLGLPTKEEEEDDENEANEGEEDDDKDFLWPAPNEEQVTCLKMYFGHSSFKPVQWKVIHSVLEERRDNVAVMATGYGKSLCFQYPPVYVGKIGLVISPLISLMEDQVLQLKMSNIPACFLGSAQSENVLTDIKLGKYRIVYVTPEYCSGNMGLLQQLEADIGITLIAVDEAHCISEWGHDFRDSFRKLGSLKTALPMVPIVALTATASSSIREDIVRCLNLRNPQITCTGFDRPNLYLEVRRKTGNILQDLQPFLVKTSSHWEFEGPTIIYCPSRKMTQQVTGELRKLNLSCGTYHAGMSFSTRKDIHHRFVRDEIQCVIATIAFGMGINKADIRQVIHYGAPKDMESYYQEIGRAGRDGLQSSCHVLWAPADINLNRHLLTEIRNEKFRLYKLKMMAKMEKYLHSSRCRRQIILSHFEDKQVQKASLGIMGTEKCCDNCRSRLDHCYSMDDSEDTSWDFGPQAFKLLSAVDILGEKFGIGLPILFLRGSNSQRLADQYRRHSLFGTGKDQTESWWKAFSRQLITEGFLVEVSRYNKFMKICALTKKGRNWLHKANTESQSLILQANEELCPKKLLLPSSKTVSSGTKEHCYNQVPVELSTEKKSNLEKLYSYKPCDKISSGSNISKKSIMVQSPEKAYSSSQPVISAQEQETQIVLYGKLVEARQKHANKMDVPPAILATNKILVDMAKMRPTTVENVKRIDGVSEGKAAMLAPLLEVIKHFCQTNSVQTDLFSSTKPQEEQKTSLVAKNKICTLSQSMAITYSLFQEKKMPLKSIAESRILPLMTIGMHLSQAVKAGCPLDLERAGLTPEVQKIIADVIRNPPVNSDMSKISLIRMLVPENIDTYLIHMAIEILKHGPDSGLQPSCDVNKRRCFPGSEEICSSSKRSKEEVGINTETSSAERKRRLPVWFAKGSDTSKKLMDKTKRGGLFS

IC50 (WRN C727) [µM]	GI50 (SW480 cells) [µM]	GI50 (HCT 116 cells) [µM]	IC50 [1] [µM]	SMILES
0.6	45.2	0.0467	0.16	CC(C)(C)c1ncc(C(=O)N[C@H](/C=C/S(C)(=O)=O)C2CCC(F)(F)CC2)c(Oc2ccccc2)n1 [Example 72, (S,E)-2-(tert-butyl)-N-(1-(4,4-difluorocyclohexyl)-3-(methylsulfonyl)allyl)-4-phenoxypyrimidine-5-carboxamide]
0.47	16	0.3	0.15	CC(C)(C)c1ncc(C(=O)N[C@H](/C=C/S(C)(=O)=O)CC(F)F)c(Oc2ccccc2)n1 [Example 73, (S,E)-2-(tert-butyl)-N-(5,5-difluoro-1-(methylsulfonyl)pent-1-en-3-yl)-4-phenoxypyrimidine-5-carboxamide]
50	> 10	3.4	4.9	CS(=O)(=O)/C=C/CNC(=O)c1cnc(C2CCCCC2)nc1Oc1ccccc1 [Example 76, (E)-2-cyclohexyl-N-(3-(methylsulfonyl)allyl)-4-phenoxypyrimidine-5-carboxamide]
50	> 10	2.6	9.33	C[C@@H](/C=C/S(C)(=O)=O)NC(=O)c1cnc(C2CCCO2)nc1Oc1ccccc1 (stereo partly drawn) [Example 78, N—((S,E)-4-(methylsulfonyl)but-3-en-2-yl)-4-phenoxy-2-(tetrahydrofuran-2-yl)pyrimidine-5-carboxamide]
0.7	20	0.28	0.55	CS(=O)(=O)/C=C/[C@@H](NC(=O)c1cnc(C(F)(F)F)nc1Oc1ccccc1)C1CC1 [Example 82, (S,E)-N-(1-cyclopropyl-3-(methylsulfonyl)allyl)-4-phenoxy-2-(trifluoromethyl)pyrimidine-5-carboxamide]
0.38	19.1	0.202	0.238	C[C@@H](/C=C/S(C)(=O)=O)NC(=O)c1cnc(C(F)(F)C(F)(F)F)nc1Oc1ccccc1 [Example 83, (S,E)-N-(4-(methylsulfonyl)but-3-en-2-yl)-2-(perfluoroethyl)-4-phenoxypyrimidine-5-carboxamide]
0.22	11.5	0.0484	0.12	COC[C@@H](/C=C/S(C)(=O)=O)NC(=O)c1cnc(C(F)(F)C(F)(F)F)nc1Oc1ccccc1 [Example 85, (R,E)-N-(1-methoxy-4-(methylsulfonyl)but-3-en-2-yl)-2-(perfluoroethyl)-4-phenoxypyrimidine-5-carboxamide]
10	43	0.245	1.1	CN(C)C(=O)C[C@@H](/C=C/S(C)(=O)=O)NC(=O)c1cnc(C(C)(F)F)nc1Oc1ccccc1 [Example 92, (S,E)-2-(1,1-difluoroethyl)-N-(5-(dimethylamino)-1-(methylsulfonyl)-5-oxopent-1-en-3-yl)-4-phenoxypyrimidine-5-carboxamide]
4.19	87.5	0.128	0.46	CO[C@@H](C)[C@@H](/C=C/S(C)(=O)=O)NC(=O)c1cnc(C(C)(F)F)nc1Oc1ccccc1 [Example 93, 2-(1,1-difluoroethyl)-N-((3R,4S,E)-4-methoxy-1-(methylsulfonyl)pent-1-en-3-yl)-4-phenoxypyrimidine-5-carboxamide]
10	40	0.74	2	C[C@@H](/C=C/S(C)(=O)=O)NC(=O)c1cnc(C2(F)CC2)nc1Oc1ccccc1 [Example 99, (S,E)-2-(1-fluorocyclopropyl)-N-(4-(methylsulfonyl)but-3-en-2-yl)-4-phenoxypyrimidine-5-carboxamide]
6.03	7.86	0.374	1.1	C[C@@H](/C=C/S(C)(=O)=O)NC(=O)c1cnc(C2(C(F)(F)F)CC2)nc1Oc1ccccc1 [Example 101, (S,E)-N-(4-(methylsulfonyl)but-3-en-2-yl)-4-phenoxy-2-(1-(trifluoromethyl)cyclopropyl)pyrimidine-5-carboxamide]
3.43	20.4	0.359	1.5	C[C@@H](/C=C/S(C)(=O)=O)NC(=O)c1cnc(C2CC(F)(F)C2)nc1Oc1ccccc1 [Example 103, (S,E)-2-(3,3-difluorocyclobutyl)-N-(4-(methylsulfonyl)but-3-en-2-yl)-4-phenoxypyrimidine-5-carboxamide]
7.43	> 10	4.8	4.6	CS(=O)(=O)/C=C/CNC(=O)c1cnc(C2CCCC2)nc1Oc1ccc(F)cc1 [Example 112, (E)-2-cyclopentyl-4-(4-fluorophenoxy)-N-(3-(methylsulfonyl)allyl)pyrimidine-5-carboxamide]
2.33	6.2	1.1	1.8	C[C@@H](/C=C/S(C)(=O)=O)NC(=O)c1cnc(C2CCCC2)nc1Oc1ccc(F)cc1 [Example 113, (S,E)-2-cyclopentyl-4-(4-fluorophenoxy)-N-(4-(methylsulfonyl)but-3-en-2-yl)pyrimidine-5-carboxamide]
30.1	> 10	2.1	2.9	C[C@@H](/C=C/S(C)(=O)=O)NC(=O)c1cnc(C2CCCC2)nc1Oc1ccccc1F [Example 115, (S,E)-2-cyclopentyl-4-(2-fluorophenoxy)-N-(4-(methylsulfonyl)but-3-en-2-yl)pyrimidine-5-carboxamide]
> 100	7.4	6	6.7	CS(=O)(=O)/C=C/CNC(=O)c1cnc(C2CCCC2)nc1Oc1cccc(Cl)c1 [Example 117, (E)-4-(3-chlorophenoxy)-2-cyclopentyl-N-(3-(methylsulfonyl)allyl)pyrimidine-5-carboxamide]
6.92	> 10	> 10	14	C[C@@H](/C=C/S(C)(=O)=O)NC(=O)c1cnc(C2CCCC2)nc1Oc1ccc(C#N)cc1 [Example 124, (S,E)-4-(4-cyanophenoxy)-2-cyclopentyl-N-(4-(methylsulfonyl)but-3-en-2-yl)pyrimidine-5-carboxamide]
52.2	> 10	3.1	12.5	C[C@@H](/C=C/S(C)(=O)=O)NC(=O)c1cnc(C2CCCC2)nc1Oc1cccnc1 [Example 125, (S,E)-2-cyclopentyl-N-(4-(methylsulfonyl)but-3-en-2-yl)-4-(pyridin-3-yloxy)pyrimidine-5-carboxamide]
25.1	4.2	2.5	5.9	C[C@@H](/C=C/S(C)(=O)=O)NC(=O)c1cnc(C2CCCC2)nc1OC1CCCCCC1 [Example 128, (S,E)-4-(cycloheptyloxy)-2-cyclopentyl-N-(4-(methylsulfonyl)but-3-en-2-yl)pyrimidine-5-carboxamide]
18.5	> 10	5.1	11	C[C@@H](/C=C/S(C)(=O)=O)NC(=O)c1cnc(C2CCCC2)nc1Oc1cccc(O)c1 [Example 136, (S,E)-2-cyclopentyl-4-(3-hydroxyphenoxy)-N-(4-(methylsulfonyl)but-3-en-2-yl)pyrimidine-5-carboxamide]
10	> 10	0.98	3.4	C[C@@H](/C=C/S(C)(=O)=O)NC(=O)c1cnc(C2CCCC2)nc1Oc1ccccc1O [Example 137, (S,E)-2-cyclopentyl-4-(2-hydroxyphenoxy)-N-(4-(methylsulfonyl)but-3-en-2-yl)pyrimidine-5-carboxamide]
15	> 10	1.1	4	C[C@@H](/C=C/S(C)(=O)=O)NC(=O)c1cnc(C(C)(C)C)nc1O[C@@H]1C[C@@H]2C[C@@H]2C1 [Example 157, 4-[[(1S,5R)-3-bicyclo[3.1.0]hexanyl]oxy]-2-tert-butyl-N—[(E,1S)-1-methyl-3-methylsulfonyl-allyl]pyrimidine-5-carboxamide]
6	3.4	0.15	0.9	CC(C)(C)c1ncc(C(=O)N[C@H](/C=C/S(C)(=O)=O)C2CC2)c(O[C@H]2C[C@@H]3C[C@@H]3C2)n1 [Example 160, 4-(((1R,3s,5S)-bicyclo[3.1.0]hexan-3-yl)oxy)-2-(tert-butyl)-N—((S,E)-1-cyclopropyl-3-(methylsulfonyl)allyl)pyrimidine-5-carboxamide]

SMILES	IC50 (WRN C727) [µM]	GI50 (SW480 cells) [µM]	GI50 (HCT 116 cells) [µM]	IC50 [1] [µM]
CC(C)(C)OC[C@@H](/C=C/S(C)(=O)=O)NC(=O)c1cnc(C(C)(F)F)nc1Oc1ccccc1 [Example 96, (R,E)-N-(1-(tert-butoxy)-4-(methylsulfonyl)but-3-en-2-yl)-2-(1,1-difluoroethyl)-4-phenoxypyrimidine-5-carboxamide]	0.4	27.5	0.0369	0.2
C[C@@H](/C=C/S(C)(=O)=O)NC(=O)c1cnc(C2CCCC2)nc1OC1CCC1 [Example 127, (S,E)-4-cyclobutoxy-2-cyclopentyl-N-(4-(methylsulfonyl)but-3-en-2-yl)pyrimidine-5-carboxamide]	7.28	5.3	1.3	4.27

Reference: patent publication US20250188040A1, “PHARMACEUTICAL COMPOSITIONS COMPRISING WRN HELICASE INHIBITORS” (Vividion Therapeutics, Inc., priority 2022, published 2025)
